Patent US20240270855A1, “NEURO-MESENCHYME UNITS CONTROL ILC2 AND OBESITY VIA A BRAIN-ADIPOSE CIRCUIT” (Fundação D. Anna de Sommer Champalimaud e Dr. Carlos Montez …, priority 2021, published 2024)

What was measured:
RET [1] = target: RET (Homo sapiens, UniProt P07949); conditions: Akeno-Stuart et al., Cancer Res. 2007; cited from earlier work
DREADD-carrying neurons = experiment: Chemogenetic modulation of GAT neurons (AAV DREADD injected in GAT, then CNO); type: in vivo, mice; conditions: for interleukin-33 (Il33) expression: vs contralateral control
[2] = system: dopaminergic and noradrenergic neurons; experiment: Chemical sympathetic ablation with 6-OHDA, GAT ILC2 cytokines by flow cytometry; type: in vivo, mice
GAT = experiment: Quantitative RT-PCR gene expression in GAT and GAT cell populations after 6-OHDA or clenbuterol; type: in vivo, mice; conditions: for expression of IL-33: GAT and PDGFRA+MSCs of treated mice; for Gdnf expression in other mesenchymal counterparts, adipocytes and endothelial cells: GAT cell populations; for expression of IL-25: PDGFRA+MSCs of treated mice; for Gdnf expression in PDGFRA+MSC: sorted GAT cell population; for Gdnf expression in the GAT: total GAT RNA
PDGFRA positive MSC = experiment: RNA sequencing of PDGFRA positive MSC from 6-OHDA-treated mice; type: in vivo; conditions: RNAseq, 6-OHDA vs vehicle
RET [3] = conditions: Tokugawa et al., Neurochem Int. 2003; cited from earlier work
purified GAT PDGFRA+MSCs = experiment: In vitro MSC activation with clenbuterol, MSC-derived GDNF; type: cell-based, mice; conditions: 10 μg/ml clenbuterol, 16 hours
Experimental: In vitro and in vivo MSC activation: For in vitro experiments, purified GAT PDGFRA+MSCs were cultured in complete DMEM (supplemented with 10% FBS, 1% HEPES, sodium pyruvate, glutamine, streptomycin and penicillin (Corning)) at 37° C. After 2 hours of rest in complete DMEM without FBS, MSCs were stimulated for 16 hours with 10 μg/ml clenbuterol. For RNA analysis, MSCs were lysed using RLT buffer (Qiagen). For GDNF protein analysis, MSCs were incubated with brefeldin A (eBioscience) during clenbuterol stimulation prior to intracellular staining.

[4] = target: T1, beta-2 adrenergic receptor (ADRB2) (Mus musculus, UniProt P18762); experiment: Systemic activation of ADRB2 with clenbuterol, GAT ILC2 cytokines; type: in vivo, mice; conditions: clenbuterol in drinking water, 10 mg/kg/day, 8 days
T1 construct: endogenous in cells; host or cells: C57BL/6J mice in vivo

[5] = system: GAT explant/ILC2 co-cultures; experiment: GAT explant/ILC2 co-culture with GDNF, Ucp1 expression; type: cell-based, mice; conditions: 50 ng/mL, 16 hours, Ret^WT vs Ret^Δ ILC2; RET dependent
Experimental: Quantitative RT-PCR: Total RNA from sorted or cultured cells was extracted using RNeasy micro kit or RNeasy mini kit (Qiagen) according to the manufacturer's protocol. When indicated, total adipose tissue or adipocyte fraction was collected to Trizol (Invitrogen) followed by chloroform and isopropanol RNA extraction, according to the manufacturer's protocol. RNA concentration was determined using Nanodrop Spectrophotometer (Nanodrop Technologies). Quantitative real-time PCR was performed in StepOne and QuantStudio 5 real-time PCR systems (Applied Biosystems) with Hprt and Gapdh as housekeeping genes. Briefly, High Capacity RNA-to-cDNA Kit (Applied Biosystems) were used to retro-transcribe RNA, followed by a pre-amplification PCR using TaqMan PreAmp Master Mix (Applied Biosystems). TaqMan Gene Expression Master Mix (Applied Biosystems) was used in the real-time PCR. TaqMan Gene Expression Assays (Applied Biosystems) were the following: Hprt Mm00446968_m1; Gapdh Mm99999915_g1; […] Mm00439646_m1; […] Mm00434204_m1; Areg Mm01354339_m1; Penk Mm01212875_m1; Ret Mm00436304_m1; Gdnf Mm00599849_m1; Ucp1 Mm01244861_m1; Adrb2 Mm02524224_s1; Il25 Mm00499822_m1; and Il33 Mm00505403_m1. Analysis was performed using the comparative CT method (2^−ΔCT). When comparison or fold change between samples was required, the comparative ΔCT method (2^−ΔΔCT) was applied. […]

[6] = AAV(3D) (activator DREADD), vs sham contralateral control
[7] = AAV(4D) (inhibitor DREADD), vs sham contralateral control
[8] = GAT, 6-OHDA 200 mg/kg intraperitoneally 3 days and 1 day before analysis, vs vehicle

Sequence of RET (Homo sapiens, UniProt P07949) (P07949 29-1114): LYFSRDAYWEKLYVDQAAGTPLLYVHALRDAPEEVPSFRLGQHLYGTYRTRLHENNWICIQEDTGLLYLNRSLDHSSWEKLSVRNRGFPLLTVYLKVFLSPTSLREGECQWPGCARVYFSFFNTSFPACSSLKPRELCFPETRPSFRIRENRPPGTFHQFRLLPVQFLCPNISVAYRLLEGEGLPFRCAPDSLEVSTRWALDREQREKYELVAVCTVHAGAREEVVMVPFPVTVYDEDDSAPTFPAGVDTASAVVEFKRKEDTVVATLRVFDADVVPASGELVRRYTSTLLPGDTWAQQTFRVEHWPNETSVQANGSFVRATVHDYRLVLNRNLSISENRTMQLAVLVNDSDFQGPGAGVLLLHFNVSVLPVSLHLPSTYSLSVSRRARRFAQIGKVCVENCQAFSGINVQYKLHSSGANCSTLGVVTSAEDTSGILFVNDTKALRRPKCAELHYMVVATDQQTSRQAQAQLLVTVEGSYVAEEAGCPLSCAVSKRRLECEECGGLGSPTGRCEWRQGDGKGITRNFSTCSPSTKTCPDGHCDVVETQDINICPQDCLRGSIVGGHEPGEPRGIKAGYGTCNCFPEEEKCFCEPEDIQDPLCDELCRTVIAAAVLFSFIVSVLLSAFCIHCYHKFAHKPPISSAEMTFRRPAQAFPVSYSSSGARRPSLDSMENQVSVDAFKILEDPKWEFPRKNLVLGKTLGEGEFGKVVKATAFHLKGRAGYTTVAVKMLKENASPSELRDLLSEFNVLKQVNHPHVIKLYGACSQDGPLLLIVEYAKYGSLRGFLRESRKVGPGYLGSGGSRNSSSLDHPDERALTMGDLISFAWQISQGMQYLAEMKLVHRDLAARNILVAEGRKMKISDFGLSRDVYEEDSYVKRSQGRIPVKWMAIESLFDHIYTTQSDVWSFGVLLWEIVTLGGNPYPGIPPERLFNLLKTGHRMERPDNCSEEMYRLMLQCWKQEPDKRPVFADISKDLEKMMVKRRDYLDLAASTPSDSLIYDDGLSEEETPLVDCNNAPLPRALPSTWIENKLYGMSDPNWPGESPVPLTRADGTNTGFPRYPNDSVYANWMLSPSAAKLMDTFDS
T1 sequence (P18762 whole entry): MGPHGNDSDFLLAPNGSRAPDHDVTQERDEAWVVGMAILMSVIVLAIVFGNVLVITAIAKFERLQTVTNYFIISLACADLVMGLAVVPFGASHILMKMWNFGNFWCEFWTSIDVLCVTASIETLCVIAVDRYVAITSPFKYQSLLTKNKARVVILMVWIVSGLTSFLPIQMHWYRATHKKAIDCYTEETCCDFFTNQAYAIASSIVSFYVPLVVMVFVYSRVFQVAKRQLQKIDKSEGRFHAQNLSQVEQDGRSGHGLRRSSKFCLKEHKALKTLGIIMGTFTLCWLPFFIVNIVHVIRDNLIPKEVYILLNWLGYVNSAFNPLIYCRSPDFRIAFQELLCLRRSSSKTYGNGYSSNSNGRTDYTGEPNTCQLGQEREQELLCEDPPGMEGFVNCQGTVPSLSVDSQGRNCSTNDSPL

CCN1CCN(Cc2ccc(NC(=O)Nc3ccc(Oc4cc(NC)ncn4)cc3)cc2C(F)(F)F)CC1 [AST 487, 1-[4-[(4-ethylpiperazin-1-yl)methyl]-3-(trifluoromethyl)phenyl]-3-[4-[6-(methylamino)pyrimidin-4-yl]oxyphenyl]urea]
RET autophosphorylation and activation of downstream effectors (RET [1]): inhibit RET autophosphorylation

C[N+]1([O-])CCN(C2=Nc3cc(Cl)ccc3Nc3ccccc32)CC1 [CNO, Clozapine-N-oxide]
GDNF expression in GAT (DREADD-carrying neurons; [6]): increased
ILC2 function (DREADD-carrying neurons; [6]): increased
interleukin-33 (Il33) expression (DREADD-carrying neurons; AAV(3D)): did not affect
GDNF expression in GAT (DREADD-carrying neurons; [7]): reduced
innate type 2 cytokines (DREADD-carrying neurons; [7]): reduced
interleukin-33 (Il33) expression (DREADD-carrying neurons; AAV(4D)): did not affect

NCCc1cc(O)c(O)cc1O [6-OHDA, 6-hydroxydopamine]
ILC2 cytokine production ([2]; Adrb2^ΔIl7ra mice): still impaired
ILC2-derived IL-13 [2, 8]: pronounced reduction
ILC2-derived Met-Enk [2, 8]: pronounced reduction
ILC2-derived interleukin (IL-) 5 [2, 8]: pronounced reduction
ILC2 cytokine production ([2]; Ret^ΔIl5 mice): unperturbed
percentage of CD4 T cells ([2]; after 6-OHDA administration): no change
expression of IL-33 (GAT): unperturbed
Gdnf expression in other mesenchymal counterparts, adipocytes and endothelial cells (GAT): unperturbed
expression of IL-25 (GAT): unperturbed
Gdnf expression in PDGFRA+MSC (GAT): modulated
Gdnf expression in the GAT (GAT): modulated
GDNF expression by PDGFRA positive MSC (PDGFRA positive MSC): significantly reduced

CCN(CC)CCCC(C)Nc1cc(/C=C/c2ccccc2Cl)nc2cc(Cl)ccc12 (centres unmarked) [XIB4035, N(4)-(7-chloro-2-[(E)-2-(2-chloro-phenyl)-vinyl]-quinolin-4-yl)-N(1),N(1)-diethyl-pentane-1,4-diamine]
RET autophosphorylation (RET [3]): induced RET autophosphorylation

CC(C)(C)NCC(O)c1cc(Cl)c(N)c(Cl)c1 (centres unmarked) [clenbuterol]
expression of IL-33 (GAT): unperturbed
Gdnf expression in other mesenchymal counterparts, adipocytes and endothelial cells (GAT): unperturbed
expression of IL-25 (GAT): unperturbed
Gdnf expression in PDGFRA+MSC (GAT): modulated
Gdnf expression in the GAT (GAT): modulated
MSC-derived GDNF (purified GAT PDGFRA+MSCs): increased
ILC2-derived cytokines in the GAT [4]: increased

B1: GDNF: glial cell-derived neurotrophic factor, a GFRα ligand that activates RET (protein, UniProt P39905 78-211, looked up)
Glial cell line-derived …: SPDKQMAVLPRRERNRQAAAANPENSRGKGRRGQRGKNRGCVLTAIHLNVTDLGLGYETKEELIFRYCSGSCDAAETTYDKILKNLSRNRRLVSDKVGQACCRPIAFDDDLSFLDDNLVYHILRKHSAKRCGCI
RET autophosphorylation (RET [3]): induced RET autophosphorylation
Ucp1 expression [5]: efficiently induced
